Here are results for three compounds from patent US8921582B2, “Oligo- and polyfurans, preparation and uses thereof” (Yeda Research and Development Co. Ltd., priority 2009, dated 2014).

Structures are written as SMILES. In brackets after ≈: the same amount, converted by molar mass. Read-outs that look alike come from different tables or passages of the source.

Data set [1] in a line: Solubility of oligofurans in organic solvent. In kind it is physicochemical. The conditions noted are these: for solubility: in chloroform (solvent stated).
Data set [2] can be described thus: Thermogravimetric analysis (TGA) / stability in air. In kind it is physicochemical. To be noted: stable in air in the absence of light, FIG. 3. The method, then:
FIG. 3 depicts Thermogravimetric Analysis (TGA) of oligofurans (a) 5F-8F and (b) 9F under N2, rate: 5° C./min.
FIG. 11 depicts thermogravimetric analysis (TGA) of oligofurans 6F, 8F and DH-6F under N2. Rate: 5° C./min.

Consider `c1coc(-c2ccc(-c3ccc(-c4ccc(-c5ccc(-c6ccco6)o5)o4)o3)o2)c1` [6F, α-sexifuran], for which the “solubility of 6F relative to corresponding 6T” value in data set [1] (in chloroform) was “over 10 times”. Moreover, the solubility in data set [1] (organic solvent or mixture, read-out: solubility) was 700 µg/mL (≈ 1760 µM). The compound also returned a decomposition temperature in data set [2] of 303 °C.
`c1csc(-c2ccc(-c3ccc(-c4ccc(-c5ccc(-c6cccs6)s5)s4)s3)s2)c1` [6T, α-sexithiophene, reference compound]: the solubility in data set [1] is less than 50 µg/mL.
`c1coc(-c2ccc(-c3ccc(-c4ccc(-c5ccc(-c6ccc(-c7ccc(-c8ccc(-c9ccco9)o8)o7)o6)o5)o4)o3)o2)c1` [9F, α-nonafuran]: the “solubility in warm acetone” value in data set [1] (warm acetone, Soxhlet extraction) is “slightly soluble”.

The term solubility denotes how much of the substance goes into solution per volume.
